Source: US20240124504A1, “AROMATIC HETEROCYCLIC COMPOUND, AND PHARMACEUTICAL COMPOSITION AND APPLICATION THEREOF” (GT APEIRON THERAPEUTICS LIMITED, priority 2020, published 2024)

Legend:
[1] = molecular target: CDK7/cyclinH/MAT1 complex (Homo sapiens, UniProt P50613); assay: In-vitro enzymatic inhibitory activity testing, CDK7 inhibition assay (Caliper EZ Reader II); assay type: biochemical; settings: CDK7/cyclinH/MAT1 6 nM, 180 min at 27° C.
Outline: (§1)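 Enzyme preincubated 10 min with compound, then peptide substrate plus ATP added in 80 mM MES pH 6.5, 10 mM MgCl2 buffer; 180 min at 27 °C, stopped with EDTA.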

CDK2/cyclinE1 complex = CDK2/cyclinE1 complex (Homo sapiens, UniProt P24941); assay: In-vitro enzymatic inhibitory activity testing, CDK2 inhibition assay (Caliper EZ Reader II); assay type: biochemical; settings: CDK2/cyclinE1 0.5 nM, 180 min at 27° C.
Outline: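 CDK2/cyclinE1 (0.5 nM) phosphorylated 5-FAM-CDK7tide (2 μM) in MES buffer pH 6.5 with MgCl2, Tween 20 and BSA. Substrate and product were separated electrophoretically on a Caliper EZ Reader II. IC50 values came from nonlinear dose-response fits.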

CDK9/cyclinT1 complex = CDK9/cyclinT1 complex (Homo sapiens, UniProt P50750); assay: In-vitro enzymatic inhibitory activity testing, CDK9 inhibition assay (Caliper EZ Reader II); assay type: biochemical; settings: CDK9/cyclinT1 8 nM, 180 min at 27° C.
Outline: as §1

[2] = molecular target: T1, CDK12 (aa686-1082)/cyclinK complex (Homo sapiens, UniProt Q9NYV4); assay: In-vitro enzymatic inhibitory activity testing, CDK12 inhibition assay (Caliper EZ Reader II); assay type: biochemical; settings: CDK12/cyclinK 50 nM, 180 min at 27° C.; read-out: CDK12 IC50
T1 construct: A CDK12 (aa686-1082)/cyclinK complex (50 nM)
Outline: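 Caliper EZ Reader II mobility-shift separation of 5-FAM-CDK9tide substrate (2 μM) from phosphoproduct, using 50 nM CDK12 (aa686-1082)/cyclinK in 80 mM MES pH 6.5, 10 mM MgCl2, 0.01% Tween 20, 50 ug/mL BSA. Compound pre-incubated 10 min with enzyme, then substrate/ATP added for 180 min at 27° C; EDTA stop. IC50 by nonlinear dose-response regression.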

[3] = system: human breast cancer cells HCC70; assay: Cell biological activity detection (CyQuant, 72 hours), HCC70; assay type: cell-based; settings: Homo sapiens, HCC70, 72 h, incubation for 72 hours
Outline: (§2)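 A2780 and HCC70 cells seeded at 2000/well in RPMI 1640 + 10% FBS, treated next day with 9-point compound dilutions (top 10 μM, 1:4; 0.2% DMSO) for 72 h at 37 °C. Cell number read by CyQuant Direct nucleic acid stain (ex 488 nm); IC50 from dose–response fit.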

ovarian cancer A2780 = assay: Cell biological activity detection (CyQuant, 72 hours), A2780; assay type: cell-based, human; settings: Homo sapiens, A2780, 72 h, A2780 cells, incubation for 72 hours
Outline: as §2

CDK9/cyclinT1 complex, sequence (P50750 whole entry, species assumed): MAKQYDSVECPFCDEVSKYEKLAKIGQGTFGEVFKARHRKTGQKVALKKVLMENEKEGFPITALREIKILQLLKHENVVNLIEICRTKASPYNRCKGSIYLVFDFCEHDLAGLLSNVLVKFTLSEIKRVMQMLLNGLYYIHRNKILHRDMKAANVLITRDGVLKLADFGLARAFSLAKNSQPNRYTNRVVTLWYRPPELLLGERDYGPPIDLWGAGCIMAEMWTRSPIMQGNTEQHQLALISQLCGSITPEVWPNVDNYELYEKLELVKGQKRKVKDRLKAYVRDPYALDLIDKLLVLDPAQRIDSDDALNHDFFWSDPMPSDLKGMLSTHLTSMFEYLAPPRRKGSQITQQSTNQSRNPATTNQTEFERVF
CDK9/cyclinT1 complex, sequence (O60563 whole entry partner, species assumed): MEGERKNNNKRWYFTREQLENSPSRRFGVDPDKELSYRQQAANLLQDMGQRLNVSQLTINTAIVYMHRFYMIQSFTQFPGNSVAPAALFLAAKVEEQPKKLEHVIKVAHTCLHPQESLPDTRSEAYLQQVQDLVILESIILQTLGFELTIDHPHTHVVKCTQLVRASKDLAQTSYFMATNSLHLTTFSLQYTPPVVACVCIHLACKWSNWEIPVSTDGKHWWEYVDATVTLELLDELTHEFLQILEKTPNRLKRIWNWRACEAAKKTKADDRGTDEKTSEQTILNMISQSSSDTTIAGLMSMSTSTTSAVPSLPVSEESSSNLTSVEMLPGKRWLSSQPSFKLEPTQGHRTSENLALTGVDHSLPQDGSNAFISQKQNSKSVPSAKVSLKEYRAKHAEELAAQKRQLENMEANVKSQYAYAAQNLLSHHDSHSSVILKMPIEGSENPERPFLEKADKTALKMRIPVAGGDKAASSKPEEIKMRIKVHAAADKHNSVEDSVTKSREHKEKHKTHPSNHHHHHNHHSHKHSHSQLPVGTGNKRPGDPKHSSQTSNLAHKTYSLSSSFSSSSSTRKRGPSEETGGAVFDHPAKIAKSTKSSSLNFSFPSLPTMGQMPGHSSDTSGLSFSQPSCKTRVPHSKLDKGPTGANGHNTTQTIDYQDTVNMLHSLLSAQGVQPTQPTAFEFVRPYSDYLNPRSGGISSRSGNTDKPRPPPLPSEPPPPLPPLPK
T1 sequence (Q9NYV4 686-1082, species assumed): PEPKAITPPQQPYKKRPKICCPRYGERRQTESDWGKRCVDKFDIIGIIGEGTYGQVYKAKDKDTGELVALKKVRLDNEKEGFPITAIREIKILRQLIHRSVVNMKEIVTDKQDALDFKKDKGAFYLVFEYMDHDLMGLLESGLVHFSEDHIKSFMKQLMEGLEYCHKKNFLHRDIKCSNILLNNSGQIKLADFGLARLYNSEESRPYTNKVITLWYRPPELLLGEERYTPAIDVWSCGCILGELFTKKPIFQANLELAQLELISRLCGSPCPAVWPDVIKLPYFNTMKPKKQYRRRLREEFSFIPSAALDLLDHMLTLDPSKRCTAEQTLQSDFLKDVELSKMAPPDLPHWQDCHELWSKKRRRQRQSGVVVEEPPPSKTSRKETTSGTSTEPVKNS
T1 sequence (O75909 whole entry partner, species assumed, the tested form may be a part): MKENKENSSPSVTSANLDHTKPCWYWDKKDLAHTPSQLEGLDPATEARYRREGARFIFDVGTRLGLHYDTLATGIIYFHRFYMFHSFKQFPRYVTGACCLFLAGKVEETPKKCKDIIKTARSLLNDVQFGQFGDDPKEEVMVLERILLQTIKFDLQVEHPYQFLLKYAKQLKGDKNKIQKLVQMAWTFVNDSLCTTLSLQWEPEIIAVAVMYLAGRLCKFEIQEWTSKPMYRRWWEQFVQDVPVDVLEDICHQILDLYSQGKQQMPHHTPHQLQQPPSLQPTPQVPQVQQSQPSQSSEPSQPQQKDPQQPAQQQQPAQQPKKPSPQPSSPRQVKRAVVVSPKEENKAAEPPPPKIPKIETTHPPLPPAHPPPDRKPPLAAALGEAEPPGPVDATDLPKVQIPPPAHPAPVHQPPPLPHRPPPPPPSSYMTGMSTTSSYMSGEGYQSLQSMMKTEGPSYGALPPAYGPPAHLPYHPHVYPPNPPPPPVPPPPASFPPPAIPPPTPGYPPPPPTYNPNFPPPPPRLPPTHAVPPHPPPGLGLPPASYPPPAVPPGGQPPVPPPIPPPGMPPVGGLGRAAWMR
CDK7/cyclinH/MAT1 complex, sequence (P50613 whole entry, species assumed): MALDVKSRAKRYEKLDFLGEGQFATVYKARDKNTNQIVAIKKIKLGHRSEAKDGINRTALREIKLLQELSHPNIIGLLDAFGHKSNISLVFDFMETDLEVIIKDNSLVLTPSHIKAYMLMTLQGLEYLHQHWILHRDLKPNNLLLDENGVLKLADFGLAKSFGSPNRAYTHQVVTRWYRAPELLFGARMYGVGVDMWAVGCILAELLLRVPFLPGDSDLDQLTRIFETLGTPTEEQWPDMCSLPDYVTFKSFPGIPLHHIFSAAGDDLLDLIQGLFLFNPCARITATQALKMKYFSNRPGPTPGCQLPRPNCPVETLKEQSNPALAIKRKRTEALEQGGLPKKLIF
CDK7/cyclinH/MAT1 complex, sequence (P51946 whole entry partner, species assumed): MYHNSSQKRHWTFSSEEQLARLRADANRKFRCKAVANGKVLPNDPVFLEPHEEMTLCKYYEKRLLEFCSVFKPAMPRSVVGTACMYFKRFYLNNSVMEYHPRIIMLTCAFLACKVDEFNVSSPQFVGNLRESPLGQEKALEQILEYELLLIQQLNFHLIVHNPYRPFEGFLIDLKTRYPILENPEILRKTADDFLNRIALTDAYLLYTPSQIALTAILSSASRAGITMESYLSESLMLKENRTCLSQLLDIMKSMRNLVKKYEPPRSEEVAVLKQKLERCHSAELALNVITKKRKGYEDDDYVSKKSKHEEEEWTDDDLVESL
CDK7/cyclinH/MAT1 complex, sequence (P51948 whole entry partner, species assumed): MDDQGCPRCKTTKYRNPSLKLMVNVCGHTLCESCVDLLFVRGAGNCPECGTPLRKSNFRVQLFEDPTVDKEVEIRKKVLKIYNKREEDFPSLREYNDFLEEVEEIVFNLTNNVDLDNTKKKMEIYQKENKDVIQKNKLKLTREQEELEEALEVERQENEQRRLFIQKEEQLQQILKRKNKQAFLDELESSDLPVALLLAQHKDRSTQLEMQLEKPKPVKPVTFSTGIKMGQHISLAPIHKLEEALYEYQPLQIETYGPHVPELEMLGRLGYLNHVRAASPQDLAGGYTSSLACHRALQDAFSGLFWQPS

Structure (SMILES)	IC50 [1] [nM]	IC50 (CDK2/cyclinE1 complex) [nM]	IC50 (CDK9/cyclinT1 complex) [nM]	IC50 [2] [nM]	IC50 [3] [nM]	IC50 (ovarian cancer A2780) [nM]
CP(C)(=O)c1cccc2c(-c3nc(NCC(O)C(F)(F)F)ncc3C(F)(F)F)c[nH]c12 (stereo not drawn) [Compound 145, Dimethyl(3-(2-((3,3,3-trifluoro-2-hydroxypropyl)amino)-5-(trifluoromethyl)pyrimidin-4-yl)-1H-indole-7-yl)phosphine oxide]	20 to 200	> 50000	> 50000	> 50000	20 to 200	20 to 200
CP(C)(=O)c1cccc2c(-c3nc(NCC4(O)CCCC4)ncc3C(F)(F)F)c[nH]c12 [Compound 151]	20 to 200	5000 to 50000	> 50000	> 50000	20 to 200	20 to 200
CP(C)(=O)c1cccc2c(-c3nc(N[C@@H](CO)C4CC4)ncc3C(F)(F)F)c[nH]c12 [Compound 159, (R)-(3-(2-((1-cyclopropyl-2-hydroxyethyl)amino)-5-(trifluoromethyl)pyrimidin-4-yl)-1H-indole-7-yl)dimethylphosphine oxide]	< 20	5000 to 50000	> 50000	> 50000	20 to 200	20 to 200
CP(C)(=O)c1cccc2c(-c3nc(NCC4(CO)CC4)ncc3C(F)(F)F)c[nH]c12 [Compound 160]	20 to 200	5000 to 50000	> 50000	> 50000	200 to 5000	200 to 5000
CC[C@](C)(CO)Nc1ncc(C(F)(F)F)c(-c2c[nH]c3c(P(C)(C)=O)cccc23)n1 [Compound 161, (R)-(3-(2-((1-hydroxy-2-methylbutan-2-yl)amino)-5-(trifluoromethyl)pyrimidin-4-yl)-1H-indole-7-yl)dimethylphosphine oxide]	< 20	5000 to 50000	> 50000	> 50000	200 to 5000	200 to 5000
CC(C)C(O)CNc1ncc(C(F)(F)F)c(-c2c[nH]c3c(P(C)(C)=O)cccc23)n1 (stereo not drawn) [Compound 162, (3-(2-((2-hydroxy-3-methylbutyl)amino)-5-(trifluoromethyl)pyrimidin-4-yl)-1H-indole-7-yl)dimethylphosphine oxide]	20 to 200	5000 to 50000	> 50000	> 50000	200 to 5000	20 to 200
C[C@H](Nc1ncc(C(F)(F)F)c(-c2c[nH]c3c(P(C)(C)=O)cccc23)n1)C(C)(C)O [Compound 163, (S)-(3-(2-((3-hydroxy-3-methylbutan-2-yl)amino)-5-(trifluoromethyl)pyrimidin-4-yl)-1H-indole-7-yl)dimethylphosphine oxide]	20 to 200	5000 to 50000	> 50000	> 50000	200 to 5000	20 to 200
CP(C)(=O)c1cccc2c(-c3nc(NCC4(O)CC4)ncc3C(F)(F)F)c[nH]c12 [Compound 164]	< 20	5000 to 50000	> 50000	> 50000	20 to 200	20 to 200
CP(C)(=O)c1cccc2c(-c3nc(N[C@H]4CCCC[C@@H]4O)ncc3C(F)(F)F)c[nH]c12 [Compound 165, (3-(2-(((1S,2S)-2-hydroxycyclohexyl)amino)-5-(trifluoromethyl)pyrimidin-4-yl)-1H-indole-7-yl)dimethylphosphine oxide]	20 to 200	5000 to 50000	> 50000	> 50000	20 to 200	20 to 200
CP(C)(=O)c1cccc2c(-c3nc(NC4(CO)CCOCC4)ncc3C(F)(F)F)c[nH]c12 [Compound 166, (3-(2-((4-(hydroxymethyl)tetrahydro-2H-pyran-4-yl)amino)-5-(trifluoromethyl)pyrimidin-4-yl)-1H-indole-7-yl)dimethylphosphine oxide]	20 to 200	> 50000	> 50000	> 50000	200 to 5000	200 to 5000
